Legend:
Columbia SK virus [1] = assay: Antiviral effects against an interferon-sensitive virus, Columbia SK; assay type: in vivo, Taconic Farms male, white mice; conditions: 400 mg/kg oral, 18 hours before infection; 14 days post injection
Experimental: Taconic Farms male, white mice, weighing 18-24 g were treated by gavage, 18 hours before infection with a test compound suspended or dissolved in 1.0 ml of 0.2% aqueous agar solution. The mice were then infected by subcutaneous injection with one LD95 of Columbia SK virus in 0.2 ml of distilled water. Groups of infected, untreated mice were used as controls to show the lethality of the infection. The test duration was 14 days.

circulating interferon = assay: Induction of circulating interferon in mice; assay type: in vivo, BDF1 mice; conditions: 300 mg/kg single oral
Columbia SK virus [2] = assay: Protection of mice against lethal Columbia SK virus infection by oral pre-treatment; assay type: in vivo, random-bred Swiss male mice; conditions: 400 mg/kg oral
Experimental: At 24, 48, 72 and 96 hours after drug treatment, separate groups of mice were injected SC with an LD95 dose of the interferon sensitive virus, Columbia SK. […] Typically, protection from lethal infection with Columbia SK virus is associated with induction of interferon.

Lewis lung carcinoma = assay: Antitumor activity against intravenously inoculated Lewis lung carcinoma in mice; assay type: in vivo, BDF1 mice; conditions: Day +19
Experimental: Lewis lung carcinoma cells, 5×10^5 viable cells, were injected intravenously into BDF1 mice. The drug was prepared in normal saline and administered once daily, by the oral route, at doses ranging from 38 mg./kg to 400 mg/kg on days 1, 7, and 13 following tumor cell inoculation. A control group of mice received a saline placebo, instead of drug, by the oral route on the same days of treatment. All mice were sacrificed on day 19 following tumor inoculation, their lungs removed and individually weighed. Additionally, a group of 10 normal, non-tumor bearing BDF1 mice, of the same sex, age, and body weight as the tumor bearing mice, were sacrificed and their lungs removed and weighed to determine the average normal lung weight. The average normal lung weight was subtracted from the weight of lungs from the tumored mice to determine the weight of tumorous tissue present in the lungs of the tumor bearing mice. A postive drug effect is indicated by a ≥58% reduction in the average lung tumor weight of the drug treated mice, relative to the average lung tumor weight of the saline placebo treated mice.
^1 BDF1 male mice inoculated intravenously with 5 ×
10^5 Lewis lung tumor cells on day zero:
3,6bis(2-diethylaminoethoxy)acridine trihydrochloride administered on day
1,7, and 13 after tumor inoculation.
^2 Average lung tumor weight = average weight of lungs from tumor
bearing mice, minus average weight of lungs from normal, nontumor bearing
*Denotes significant (≥58%) inhibition of lung tumor weight.

B16 melanoma = assay: Surgical-adjuvant antitumor activity against B16 melanoma implanted subcutaneously in footpads; assay type: in vivo, BDF1 mice; conditions: for Average % of tumor weight inhibition / Average tumor weight: Day +21; for No. Survivors/No. Treated: at +90 days
Experimental: BDF1 mice were inoculated subcutaneously in the right hind footpad with 5×10^5 viable B16 melanoma cells, on day zero. The drug was prepared in normal saline and administered by the oral route once daily, on days 1, 7, and 13 following tumor implantation, at doses range from 50 mg/kg to 400 mg/kg. A control group of mice received a saline placebo instead of drug, and another group of tumor bearing mice received the positive control drug cyclophosphamide, at 100 mg/kg, by intraperitoneal injection. On the 21st day after tumor implantation, the mice were anesthesized with Nembutal, and the tumor bearing feet were surgically amputated above the ankle joint. The surgical incision was swabbed with alcohol and sealed with stainless steel wound clips. The tumor bearing feet were individually weighed and the average weight of a normal foot (determined by weighing amputated feet from non-tumor bearing mice of the same sex, age, and body weight) was subtracted to obtain the weight of tumor tissue in the amputated feet. Mice were then observed for deaths until the 90th day after tumor implantation. […]
^1 BDF1 male mice inocluated with 5 × 10^5 B16 melanom
cells subcutaneously in footpad on day zero;
3,6bis(2-diethylaminoethoxy)acridine trihydrochloride administered orally
and Cyclophosphamide intraperitoneally, on days 1, 7, and 13 following
^2 Average tumor weight determined after surgical amputation of tumor
bearing foot on day 21 following tumor implantation.

[3] = 300 mg/kg oral, * significant (≥58%)
[4] = 400 mg/kg oral, * significant (≥58%)

CCN(CC)CCOc1ccc2cc3ccc(OCCN(CC)CC)cc3nc2c1.Cl.Cl.Cl
Survivors/Total (Columbia SK virus [1]): 10/15
Induction of circulating interferon, in words (circulating interferon): induced the production of high levels of circulating interferon
Time of peak titers of interferon after drug administration (circulating interferon): 16 to 24 h
Serum interferon titer (circulating interferon; 0 hours): 10 units/ml
Serum interferon titer (circulating interferon; 8 hours): 100 units/ml
Serum interferon titer (circulating interferon; 16 hours): 3200 units/ml
Serum interferon titer (circulating interferon; 24 hours): 3200 units/ml
Serum interferon titer (circulating interferon; 32 hours): 2100 units/ml
Serum interferon titer (circulating interferon; 48 hours): 50 units/ml
Interferon titer 72 hours after drug treatment, in words (circulating interferon; 72 hours): at normal levels
Serum interferon titer (circulating interferon; 72 hours): 10 units/ml
Survivors/Total (14 Days) (Columbia SK virus [2]; -24 hr relative to virus challenge, * p <.01): 19/20
Survivors/Total (14 Days) (Columbia SK virus [2]; -48 hr relative to virus challenge, * p <.01): 10/20
Survivors/Total (14 Days) (Columbia SK virus [2]; -72 hr relative to virus challenge): 1/20
Survivors/Total (14 Days) (Columbia SK virus [2]; -96 hr relative to virus challenge): 1/20
Average % tumor inhibition (Lewis lung carcinoma; 38 mg/kg oral): 33%
Average lung tumor weight (Lewis lung carcinoma; 38 mg/kg oral): 99 mg
No. Survivors/No. Treated (Lewis lung carcinoma; 38 mg/kg oral): 10/12
Average % tumor inhibition (Lewis lung carcinoma; 75 mg/kg oral): 5%
Average lung tumor weight (Lewis lung carcinoma; 75 mg/kg oral): 139 mg
No. Survivors/No. Treated (Lewis lung carcinoma; 75 mg/kg oral): 12/12
Average % tumor inhibition (Lewis lung carcinoma; 150 mg/kg oral): 51%
Average lung tumor weight (Lewis lung carcinoma; 150 mg/kg oral): 72 mg
No. Survivors/No. Treated (Lewis lung carcinoma; 150 mg/kg oral): 12/12
Average lung tumor weight (Lewis lung carcinoma; 300 mg/kg oral): 40 mg
No. Survivors/No. Treated (Lewis lung carcinoma; 300 mg/kg oral): 12/12
Average % tumor inhibition (Lewis lung carcinoma; [3]): 73%
Average lung tumor weight (Lewis lung carcinoma; 400 mg/kg oral): 12 mg
No. Survivors/No. Treated (Lewis lung carcinoma; 400 mg/kg oral): 10/12
Average % tumor inhibition (Lewis lung carcinoma; [4]): 92%
% Increased life-span (B16 melanoma; 50 mg/kg oral): 2%
Median survival time (B16 melanoma; 50 mg/kg oral): 54.0 days
Average % of tumor weight inhibition (B16 melanoma; 50 mg/kg oral): 33%
Average tumor weight (B16 melanoma; 50 mg/kg oral): 403 mg
No. Survivors/No. Treated (B16 melanoma; 50 mg/kg oral): 0/12
% Increased life-span (B16 melanoma; 100 mg/kg oral): 21%
Median survival time (B16 melanoma; 100 mg/kg oral): 64.0 days
Average tumor weight (B16 melanoma; 100 mg/kg oral): 225 mg
Average % of tumor weight inhibition (B16 melanoma; 100 mg/kg oral, * significant (≥58%)): 63%
No. Survivors/No. Treated (B16 melanoma; 100 mg/kg oral): 2/12
Median survival time (B16 melanoma; 200 mg/kg oral): > 90.0 days
Average tumor weight (B16 melanoma; 200 mg/kg oral): 122 mg
Average % of tumor weight inhibition (B16 melanoma; 200 mg/kg oral, * significant (≥58%)): 80%
No. Survivors/No. Treated (B16 melanoma; 200 mg/kg oral, ** significant): 7/12
% Increased life-span (B16 melanoma; 200 mg/kg oral, + significant (≥25%)): > 70%
Median survival time (B16 melanoma; 300 mg/kg oral): > 90.0 days
Average tumor weight (B16 melanoma; 300 mg/kg oral): 63 mg
Average % of tumor weight inhibition (B16 melanoma; [3]): 90%
No. Survivors/No. Treated (B16 melanoma; 300 mg/kg oral, ** significant): 8/12
% Increased life-span (B16 melanoma; 300 mg/kg oral, + significant (≥25%)): > 70%
Median survival time (B16 melanoma; 400 mg/kg oral): 69.0 days
Average tumor weight (B16 melanoma; 400 mg/kg oral): 51 mg
Average % of tumor weight inhibition (B16 melanoma; [4]): 92%
No. Survivors/No. Treated (B16 melanoma; 400 mg/kg oral, ** significant): 5/12
% Increased life-span (B16 melanoma; 400 mg/kg oral, + significant (≥25%)): 30%

Reference: patent US4314061A, “Certain 3,6-bis-(heteroaminoalkoxy) acridines” (priority 1980, dated 1982)
